Results published in PubChem BioAssay (NCI).
Values joined by “and” are separate entries in the source; they are usually repeats but may differ in a detail not shown here. Equal entries are not always repeated.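 1) Cells in 96-well plates. 2) Compound, 48 h, 5 concentrations. 3) Linear interpolation between surrounding doses. 4) Unreached endpoint = highest concentration. Here, GI50 denotes the concentration required for 50% inhibition of growth. TGI is the concentration that stops growth completely.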

What was measured:
Assay in all cases: NCI-60 cell line screen, 48 h
[1] = tested on: 786-0 renal
[2] = tested on: A549 NSCLC
[3] = tested on: DU-145 prostate
[4] = tested on: HCC-2998 colon
[5] = tested on: K-562 leukemia
[6] = tested on: KM12 colon
[7] = tested on: M14 melanoma
[8] = tested on: MDA-MB-231 breast
[9] = tested on: MDA-N
[10] = tested on: OVCAR-3 ovarian
[11] = tested on: PC-3 prostate
[12] = tested on: SF-268 CNS
[13] = tested on: SF-295 CNS
[14] = tested on: SK-MEL-28 melanoma
[15] = tested on: SK-MEL-5 melanoma
[16] = tested on: SW-620 colon
[17] = tested on: U251 CNS
[18] = tested on: SR leukemia

Structure (SMILES)	TGI [1] [µM]	TGI [2] [µM]	TGI [3] [µM]	TGI [4] [µM]	TGI [5] [µM]	TGI [6] [µM]	TGI [7] [µM]	TGI [8]	TGI [9]	TGI [10] [µM]	TGI [11] [µM]	TGI [12]	TGI [13]	TGI [14]	TGI [15] [µM]	TGI [16] [µM]	TGI [17] [µM]	TGI [18] [µM]	GI50 [8] [µM]	GI50 [10] [µM]
O=C1C=C(O)c2c(O)ccc(O)c2C1=O	> 100	> 100	> 100	> 100	> 100	> 100	> 100	> 100 µM	> 100 µM	> 100	> 100	> 100 µM	> 100 µM	> 100 µM	> 100	> 100	> 100			
COc1ccc(C2=C(Cl)c3cc(OC)c(OC)cc3C2)cc1OC	> 100	> 100		> 100	> 100		> 100					> 100 µM	> 100 µM	> 100 µM	> 100	> 100	> 100	> 100		
OCC1OC(c2ccccc2)CC1O (stereo not drawn)	> 100	> 100	> 100		> 100	> 100	> 100	> 100 µM		> 100			> 100 µM	> 100 µM	> 100	> 100	> 100	> 100		
Cn1c(COC(=O)NC2CCCCC2)c(COC(=O)NC2CCCCC2)c2ccc3cc(C=O)ccc3c21	> 100	> 100	> 100	> 100	> 100	> 100	> 100	> 100 µM	> 100 µM	> 100	> 100	> 100 µM	> 100 µM		> 100	> 100	87.5			
CC(=O)c1ccc2c3c1O[C@H]1c4[nH]c5ccccc5c4C[C@@]4(O)[C@@H](C2)N(CC2CC2)CC[C@]314	28.3	21.3	39.5		41.3	37.6	31.3	25.7 µM	34.6 µM	23.4	21.7	28.8 µM	29 µM	> 100 µM	31.8	20.6	26.1			
O=C(NN1C(=O)C(Cl)C1c1ccccc1Cl)c1ccccc1O (stereo not drawn)	> 100	> 100		> 100	> 100	> 100	> 100			> 100		> 100 µM	> 100 µM	> 100 µM	> 100		> 100			
Cc1ccc2c(=O)cc(Cc3csc4ccccc34)[nH]c2n1	> 100	> 100	> 100		> 100	> 100	> 100	> 100 µM	> 100 µM	> 100	> 100	> 100 µM	93.8 µM	> 100 µM	32.4	> 100	> 100			
CC1=CC(=O)/C(=C/n2c(=S)[nH]c3cc(C)ccc32)C(=O)O1	> 100	> 100	> 100	> 100		> 100	> 100	> 100 µM	> 100 µM	> 100	> 100	> 100 µM	> 100 µM	> 100 µM	> 100	> 100	> 100			
O=C(c1ccccc1)c1c(C(F)(F)F)n([O-])c2cc(F)c(F)cc2[n+]1=O	1.03	8.34	8.71			3.9	1.49			1.16	2.44	2.45 µM	5.66 µM	> 100 µM	3.33	> 100				
CC1=NN(C(=O)Cc2ccccc2)C(=O)/C1=C\c1ccccc1O	> 100	> 100		> 100	> 100	> 100	> 100			> 100		> 100 µM	> 100 µM	> 100 µM	> 100	> 100	> 100			
Cc1c2oc3c(C)cc(F)c(C(=O)NC4C(=O)NC(C(C)C)C(=O)N5CCCC5C(=O)N(C)CC(=O)N(C)C(C(C)C)C(=O)OC4C)c3nc-2c(C(=O)NC2C(=O)NC(C(C)C)C(=O)N3CCCC3C(=O)N(C)CC(=O)N(C)C(C(C)C)C(=O)OC2C)c(N)c1=O (stereo not drawn)	78.5							6.8 µM and 2.45 µM	1.32 µM and 1.12 µM		4.68	4.21 µM and 15.3 µM	2.32 µM and 4.16 µM	1.31 µM and 0.988 µM	0.223	3.77	25.9		0.0186	0.171
COc1cc2[nH]c(=O)c3cc(C)cc4c(Cl)nc(c1OC)c2c43	> 100	> 100	> 100	> 100	> 100	> 100	> 100	> 100 µM	> 100 µM	> 100	> 100	84.8 µM	> 100 µM	> 100 µM	> 100	> 100	> 100			
COc1cc([C@@H]2c3cc4c(cc3[C@@H](c3c(O)cc(O)c5c3O[C@H](c3ccc(O)c(O)c3)[C@H](OC(=O)c3cc(O)c(O)c(O)c3)C5)[C@H]3COC(=O)[C@H]23)OCO4)cc(OC)c1O	> 100	99.2	> 100	92.3		> 100	64.2	> 100 µM	> 100 µM	> 100	> 100	> 100 µM	> 100 µM	> 100 µM	78.4	> 100	> 100			
O=C(CSCC(=O)N/N=C\c1ccccc1F)N/N=C\c1ccccc1F	> 100	> 100	> 100	> 100		> 100	> 100	> 100 µM		> 100		> 100 µM	> 100 µM	> 100 µM	> 100	> 100	> 100			
